{
  "source": "patent US5710245A",
  "about": "“Alpha-helix mimetics and methods relating thereto” (Molecumetics, Ltd., priority 1995, dated 1998)",
  "assay": "Circular dichroism (alpha-helicity) of peptide in water",
  "format": "physicochemical",
  "settings": "ratio of mean residue ellipticity at 222 nm to 208 nm, 75 μM in water",
  "from_the_text": "Alpha-helicity of a peptide is typically determined by measuring its circular dichroism (CD), and CD data is normally presented as mean residue ellipticies [.THETA.]m. Alpha-helical peptides show two negative Cotton effects at 208 nm and 222 nm, and a positive Cotton effect at 193 nm, while the CD spectra of peptides with random coil secondary structure are dominated by the increasing negative Cotton effect at shorter wavelength. Alpha-helicity may be estimated from the value at 222 nm, and by comparing the negative Cotton effects at 222nm and 208nm. Increasing fraction of [.THETA.]m (222 nm) divided by [.THETA.]m(208 nm) correlates with increasing alpha-helicity. High values for [.THETA.]m(208 nm) compared to [.THETA.]m (222 nm) and a shifting minimum from 208 nm to shorter wavelengths indicate random coil conformation.\nAn NPY analog having the structure Ac-RAAANLITRQRY--NH2 was synthesized according to standard solid phase peptide synthetic techniques. The NPY analog was then dissolved in water at a concentration of 75 μM, and its CD measured using a JASCO J500 CD spectrometer at a temperature of both 3° C. and 25° C. Structure VI was synthesized according to Example 3, and its CD was similarly measured at both 3° C. and 25° C. (at a concentration of 75 μM).",
  "data": [
    {"substance": "Ac-RAAANLITRQRY-NH2 [NPY Analog, Ac-RAAANLITRQRY--NH2]", "values": [
      {"measurement": "Circular Dichroism 222/208 3° C.", "setting": "3° C.", "result": 0.38},
      {"measurement": "Circular Dichroism 222/208 25° C.", "setting": "25° C.", "result": 0.41}
    ]}
  ]
}
